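Protocol summary: plate cells (96-well), add compound at 5 concentrations, incubate 48 h, interpolate endpoints linearly. The concentration for full growth arrest is given as TGI.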
Tests used:
Assay in all cases: NCI tumour cell line growth inhibition, 48 h
MCF7 breast = tested on: MCF7 breast
CAKI-1 renal = tested on: CAKI-1 renal
SW-620 colon = tested on: SW-620 colon
OVCAR-3 ovarian = tested on: OVCAR-3 ovarian
SK-MEL-28 melanoma = tested on: SK-MEL-28 melanoma
UACC-257 melanoma = tested on: UACC-257 melanoma
MOLT-4 leukemia = tested on: MOLT-4 leukemia
LOX IMVI melanoma = tested on: LOX IMVI melanoma
SNB-75 CNS = tested on: SNB-75 CNS
MDA-N = tested on: MDA-N
IGROV1 ovarian = tested on: IGROV1 ovarian
SK-MEL-5 melanoma = tested on: SK-MEL-5 melanoma
SF-268 CNS = tested on: SF-268 CNS
DU-145 prostate = tested on: DU-145 prostate
RXF 393 renal = tested on: RXF 393 renal
786-0 renal = tested on: 786-0 renal
EKVX NSCLC = tested on: EKVX NSCLC
CCRF-CEM leukemia = tested on: CCRF-CEM leukemia
OVCAR-4 ovarian = tested on: OVCAR-4 ovarian
OVCAR-5 ovarian = tested on: OVCAR-5 ovarian
SNB-19 CNS = tested on: SNB-19 CNS
NCI/ADR-RES ovarian = tested on: NCI/ADR-RES ovarian
A549 NSCLC = tested on: A549 NSCLC
NCI-H460 lung = tested on: NCI-H460 lung
M14 melanoma = tested on: M14 melanoma
HCC-2998 colon = tested on: HCC-2998 colon
MDA-MB-435 = tested on: MDA-MB-435
K-562 leukemia = tested on: K-562 leukemia
HOP-92 NSCLC = tested on: HOP-92 NSCLC
COLO 205 colon = tested on: COLO 205 colon
TK-10 renal = tested on: TK-10 renal
U251 CNS = tested on: U251 CNS
SK-OV-3 ovarian = tested on: SK-OV-3 ovarian
HOP-62 NSCLC = tested on: HOP-62 NSCLC
OVCAR-8 ovarian = tested on: OVCAR-8 ovarian
HS 578T breast = tested on: HS 578T breast
BT-549 breast = tested on: BT-549 breast
SN12C renal = tested on: SN12C renal
SK-MEL-2 melanoma = tested on: SK-MEL-2 melanoma
KM12 colon = tested on: KM12 colon
T-47D breast = tested on: T-47D breast
A498 renal = tested on: A498 renal
HCT-116 colon = tested on: HCT-116 colon
MDA-MB-231 breast = tested on: MDA-MB-231 breast
ACHN renal = tested on: ACHN renal
SF-539 CNS = tested on: SF-539 CNS
UO-31 renal = tested on: UO-31 renal
PC-3 prostate = tested on: PC-3 prostate
NCI-H23 lung = tested on: NCI-H23 lung
HCT-15 colon = tested on: HCT-15 colon
NCI-H226 lung = tested on: NCI-H226 lung
SF-295 CNS = tested on: SF-295 CNS
MALME-3M melanoma = tested on: MALME-3M melanoma
RPMI-8226 leukemia = tested on: RPMI-8226 leukemia
HT29 colon = tested on: HT29 colon
NCI-H522 lung = tested on: NCI-H522 lung
UACC-62 melanoma = tested on: UACC-62 melanoma
SR leukemia = tested on: SR leukemia
HL-60(TB) leukemia = tested on: HL-60(TB) leukemia

Work on `Oc1c(CN2CCOCC2)ccc2cccnc12` yielded a TGI (MCF7 breast) of over 10 µM, a TGI (CAKI-1 renal) of over 10 µM and a TGI (SW-620 colon) of over 10 µM. It also gave a TGI (OVCAR-3 ovarian) of over 10 µM, a TGI (SK-MEL-28 melanoma) of over 10 µM and a TGI (UACC-257 melanoma) of over 10 µM. The TGI (MOLT-4 leukemia) was over 10 µM, the TGI (LOX IMVI melanoma) was over 10 µM and the TGI (SNB-75 CNS) was over 10 µM. It also gave a TGI (MDA-N) of over 10 µM, a TGI (IGROV1 ovarian) of over 10 µM and a TGI (SK-MEL-5 melanoma) of over 10 µM. The TGI (SF-268 CNS) was over 10 µM, the TGI (DU-145 prostate) was over 10 µM and the TGI (RXF 393 renal) was over 10 µM. The TGI (786-0 renal) was over 10 µM, the TGI (EKVX NSCLC) was over 10 µM and the TGI (CCRF-CEM leukemia) was 7.56 µM. For the same compound, the TGI (OVCAR-4 ovarian) was over 10 µM, the TGI (OVCAR-5 ovarian) was over 10 µM and the TGI (SNB-19 CNS) was over 10 µM. For the same compound, the TGI (NCI/ADR-RES ovarian) was 6.6 µM, the TGI (A549 NSCLC) was over 10 µM and the TGI (NCI-H460 lung) was over 10 µM. It also gave a TGI (M14 melanoma) of over 10 µM, a TGI (HCC-2998 colon) of over 10 µM and a TGI (MDA-MB-435) of over 10 µM. The TGI (K-562 leukemia) was over 10 µM, the TGI (HOP-92 NSCLC) was over 10 µM and the TGI (COLO 205 colon) was over 10 µM. It also gave a TGI (TK-10 renal) of over 10 µM, a TGI (U251 CNS) of over 10 µM and a TGI (SK-OV-3 ovarian) of over 10 µM. The TGI (HOP-62 NSCLC) was over 10 µM, the TGI (OVCAR-8 ovarian) was over 10 µM and the TGI (HS 578T breast) was over 10 µM. The TGI (BT-549 breast) was 8.26 µM, the TGI (SN12C renal) was over 10 µM and the TGI (SK-MEL-2 melanoma) was over 10 µM. For the same compound, the TGI (KM12 colon) was over 10 µM, the TGI (T-47D breast) was over 10 µM and the TGI (A498 renal) was over 10 µM. It also gave a TGI (HCT-116 colon) of over 10 µM, a TGI (MDA-MB-231 breast) of over 10 µM and a TGI (ACHN renal) of over 10 µM. For the same compound, the TGI (SF-539 CNS) was over 10 µM, the TGI (UO-31 renal) was over 10 µM and the TGI (PC-3 prostate) was over 10 µM. For the same compound, the TGI (NCI-H23 lung) was over 10 µM, the TGI (HCT-15 colon) was over 10 µM and the TGI (NCI-H226 lung) was over 10 µM. For the same compound, the TGI (SF-295 CNS) was over 10 µM, the TGI (MALME-3M melanoma) was over 10 µM and the TGI (RPMI-8226 leukemia) was over 10 µM. For the same compound, the TGI (HT29 colon) was over 10 µM and the TGI (NCI-H522 lung) was 7.81 µM.

For `Cn1cc(NC(=O)c2cc(NC(=O)CN=C(N)N)cn2C)cc1C(=O)NCCC(=N)N`, the TGI (MCF7 breast) was over 100 µM, the TGI (CAKI-1 renal) was over 100 µM and the TGI (SW-620 colon) was over 100 µM. For the same compound, the TGI (OVCAR-3 ovarian) was over 100 µM, the TGI (SK-MEL-28 melanoma) was over 100 µM and the TGI (UACC-257 melanoma) was over 100 µM. For the same compound, the TGI (MOLT-4 leukemia) was over 100 µM, the TGI (LOX IMVI melanoma) was over 100 µM and the TGI (UACC-62 melanoma) was over 100 µM. For the same compound, the TGI (MDA-N) was over 100 µM, the TGI (IGROV1 ovarian) was over 100 µM and the TGI (SK-MEL-5 melanoma) was over 100 µM. It also gave a TGI (SF-268 CNS) of over 100 µM, a TGI (DU-145 prostate) of over 100 µM and a TGI (RXF 393 renal) of over 100 µM. For the same compound, the TGI (786-0 renal) was over 100 µM, the TGI (EKVX NSCLC) was over 100 µM and the TGI (CCRF-CEM leukemia) was over 100 µM. For the same compound, the TGI (OVCAR-4 ovarian) was over 100 µM, the TGI (OVCAR-5 ovarian) was over 100 µM and the TGI (SNB-19 CNS) was over 100 µM. The TGI (NCI/ADR-RES ovarian) was over 100 µM, the TGI (A549 NSCLC) was over 100 µM and the TGI (NCI-H460 lung) was over 100 µM. For the same compound, the TGI (M14 melanoma) was over 100 µM, the TGI (HCC-2998 colon) was over 100 µM and the TGI (MDA-MB-435) was over 100 µM. For the same compound, the TGI (K-562 leukemia) was over 100 µM, the TGI (HOP-92 NSCLC) was over 100 µM and the TGI (COLO 205 colon) was over 100 µM. The TGI (TK-10 renal) was over 100 µM, the TGI (U251 CNS) was over 100 µM and the TGI (SK-OV-3 ovarian) was over 100 µM. It also gave a TGI (HOP-62 NSCLC) of over 100 µM, a TGI (OVCAR-8 ovarian) of over 100 µM and a TGI (HS 578T breast) of over 100 µM. The TGI (BT-549 breast) was over 100 µM, the TGI (SN12C renal) was over 100 µM and the TGI (SK-MEL-2 melanoma) was over 100 µM. The TGI (KM12 colon) was over 100 µM, the TGI (SR leukemia) was over 100 µM and the TGI (T-47D breast) was over 100 µM. For the same compound, the TGI (A498 renal) was over 100 µM, the TGI (HCT-116 colon) was over 100 µM and the TGI (HL-60(TB) leukemia) was over 100 µM. For the same compound, the TGI (ACHN renal) was over 100 µM, the TGI (SF-539 CNS) was over 100 µM and the TGI (UO-31 renal) was over 100 µM. For the same compound, the TGI (PC-3 prostate) was over 100 µM, the TGI (NCI-H23 lung) was over 100 µM and the TGI (HCT-15 colon) was over 100 µM. The TGI (NCI-H226 lung) was over 100 µM, the TGI (SF-295 CNS) was over 100 µM and the TGI (MALME-3M melanoma) was over 100 µM. It also gave a TGI (RPMI-8226 leukemia) of over 100 µM, a TGI (HT29 colon) of over 100 µM and a TGI (NCI-H522 lung) of over 100 µM.
